Results on 16 compounds are retold here after ChEMBL document CHEMBL1201862, “PubChem BioAssay data set” (2004).

Some test systems named below: DMS-114; XF498; LXFL 529; DLD-1; M19-MEL; HOP-18; DMS-273; KM-20L2; RXF 631.
Common to all, as to assay: growth of human tumour cells (NCI), 48 h

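In this assay, cells in 96-well plates receive the compound at five concentrations for 48 hours. Endpoints are linearly interpolated between the surrounding concentrations. At the GI50, growth is halved.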 Activity calls are given as the source filed them. No stated cut-off is given here; in the data, active = GI50 up to about 1.1 µM and inactive = higher.

On to `CC(=O)NC1=C(C)C(=O)c2c(nc3n2CCC3O)C1=O` (configuration not stated), for which the GI50 in the test on DMS-114 is 5.56 µM (inactive); with XF498, 18.2 µM (inactive); in the test with LXFL 529, 19.6 µM (inactive); in the test with DLD-1, 39.5 µM (inactive); in the test with M19-MEL, 25.6 µM (inactive); in the test on HOP-18 it was > 100 µM (inactive). Moreover, the values for the GI50 with DMS-273 and in the test on KM-20L2 were 44.8 µM (inactive) and > 72.1 µM (inactive), respectively.

In the case of `Clc1ccc(C[P+]2(c3ccccc3)CCCCC2)cc1.[O-][Cl+3]([O-])([O-])[O-]`, the GI50 in the test with DMS-114 was 50.4 µM (inactive); with XF498, 44 µM (inactive); in the test with LXFL 529 it was 37.1 µM (inactive); in the test with DLD-1, > 100 µM (inactive); with M19-MEL it was 28.7 µM (inactive); with HOP-18, > 100 µM (inactive). Moreover, the GI50 with DMS-273 was 57.5 µM (inactive); in the test with KM-20L2, 54.6 µM (inactive).

`O=C1N(c2ccccc2)C2(O)C(=O)c3ccccc3C2(O)N1c1ccccc1` (configuration not stated): the GI50 in the test with DMS-114, in the test on LXFL 529, in the test on DLD-1, in the test with M19-MEL, with HOP-18 and with DMS-273 was > 100 µM (inactive) throughout. For the same compound, in the test on KM-20L2, the GI50 is > 100 µM (inactive).

In the case of `C/C(=N\NC(=S)N(C)C)c1ncc[nH]1`, the GI50 in the test on DMS-114 was 3.13 µM (inactive); in the test on XF498 it was 4.73 µM (inactive); in the test on LXFL 529, 2.98 µM (inactive); in the test on DLD-1, 2.9 µM (inactive); with M19-MEL it was 5.6 µM (inactive); with HOP-18, 5.37 µM (inactive). For the same compound, in the test with KM-20L2, the GI50 was 3.57 µM (inactive).

Take `CC1=C(C(=O)Nc2cc(=O)n(C)c(=O)n2C)C(c2ccc([N+](=O)[O-])cc2)C(C(=O)Nc2cc(=O)n(C)c(=O)n2C)=C(C)N1`: the GI50 is 73.5 µM (inactive) in the test on DMS-114; 8.97 µM (inactive) in the test with XF498; 51.8 µM (inactive) with LXFL 529; 90.8 µM (inactive) in the test on DLD-1; > 100 µM (inactive) with RXF 631; > 100 µM (inactive) in the test on M19-MEL. For the same compound, the GI50 with HOP-18 is 51.5 µM (inactive); in the test with KM-20L2 it was > 100 µM (inactive).

Turning to `CCC1CC2C(=O)N(c3ccccc3)C(=O)C2c2[nH]c3ccccc3c21` (configuration not stated), the GI50 was 13.9 µM (inactive) in the test with DMS-114; 16.7 µM (inactive) in the test on XF498; 20.2 µM (inactive) with LXFL 529; 24 µM (inactive) with DLD-1; 13.3 µM (inactive) in the test on RXF 631; 20.4 µM (inactive) in the test with M19-MEL. For the same compound, the results for the GI50 in the test on HOP-18 and in the test with DMS-273 were 14.3 µM (inactive) and > 10 µM (inactive), respectively.

As for `CCc1ccc(Cc2ccc(CC)c(NC(=O)C(=O)C3NC(=S)NC3=O)c2CC)c(CC)c1NC(=O)C(=O)C1NC(=S)NC1=O` (configuration not stated), the GI50 with LXFL 529, with DLD-1, in the test on RXF 631, in the test on M19-MEL, in the test on DMS-273 and with KM-20L2 was > 100 µM (inactive) each time.

Turning to `Cc1cc(S(=O)(=O)O)c(NC(=O)C(=O)C2C=CCS2(=O)=O)cc1Cl` (configuration not stated), the GI50 with DMS-114, in the test with XF498, in the test with LXFL 529, in the test on DLD-1, in the test with M19-MEL and with HOP-18 was > 100 µM (inactive) each time. The GI50 in the test with DMS-273 and with KM-20L2 was > 100 µM (inactive) each time.

Regarding `COC(=O)C1=CNC(C(=O)OC)=NN1`, the GI50 with DMS-114, in the test with XF498, in the test with LXFL 529, with DLD-1, in the test on RXF 631 and in the test with M19-MEL was > 100 µM (inactive) in each case. In addition, the GI50 with HOP-18 and with KM-20L2 was > 100 µM (inactive) in each case.

As to `COc1ccc2c(c1)[C@@H](NC(C)=O)CCc1cc(OC)c(OC)c(OC)c1-2`, the GI50 is 0.0118 µM (active) with DMS-114; 0.0137 µM (active) with XF498; < 0.0137 µM (active) in the test on LXFL 529; < 0.0138 µM (active) in the test with DLD-1; < 0.0154 µM (active) in the test with M19-MEL; > 100 µM (inactive) in the test with HOP-18. Moreover, the GI50 is < 0.01 µM (active) in the test with DMS-273 and 0.0117 µM (active) in the test with KM-20L2.

As to `Nc1ccccc1SC(/C=C/NNC1=NN=C(c2ccccc2)C(c2ccccc2)N1)c1ccccc1` (configuration not stated), the GI50 in the test on DMS-114 is 13.6 µM (inactive); in the test with DLD-1, 12.9 µM (inactive); with M19-MEL, 11.4 µM (inactive); in the test on DMS-273, 16.9 µM (inactive); in the test with KM-20L2 it was 21 µM (inactive).

With `CCCc1c[nH]c(-c2ccc(-c3cc(CCC)c(C=O)[nH]3)s2)c1`, the GI50 in the test with DMS-114 was 14.1 µM (inactive); with XF498 it was 18.7 µM (inactive); with LXFL 529 it was 18.8 µM (inactive); with DLD-1, 15 µM (inactive); in the test on M19-MEL, 7.93 µM (inactive); in the test on HOP-18, 27.7 µM (inactive). Also, the GI50 in the test with DMS-273 was 14.9 µM (inactive).

Turning to `CC(=O)CC(=O)Nc1ccccc1C(F)(F)F`, the GI50 with DMS-114, in the test with XF498, in the test on LXFL 529, with DLD-1, in the test on RXF 631 and in the test on M19-MEL was > 100 µM (inactive) throughout. Also, the GI50 with KM-20L2 is > 100 µM (inactive).

With `O=C1c2ccccc2S[C@@H](O)[C@@H]2CCCN12`, the GI50 was > 100 µM (inactive) in the test with DMS-114; 39.6 µM (inactive) in the test with XF498; > 100 µM (inactive) in the test with LXFL 529; > 100 µM (inactive) with DLD-1; > 100 µM (inactive) in the test on M19-MEL; > 100 µM (inactive) in the test with HOP-18. The GI50 in the test on DMS-273 and in the test with KM-20L2 was > 100 µM (inactive) in each case.

Take `CS(=O)(=O)OCCCCOS(C)(=O)=O` [BUSULFAN]: the GI50 was 225 µM (inactive) in the test on DMS-114; > 250 µM (inactive) with LXFL 529; > 236 µM (inactive) with DLD-1; 226 µM (inactive) in the test on M19-MEL; > 200 µM (inactive) with HOP-18; 191 µM (inactive) in the test on DMS-273. Further, the GI50 with KM-20L2 was > 234 µM (inactive).

As to `CCn1cc(C(=O)O)c(=O)c2cc(F)c(N3CCNCC3)nc21` [ENOXACIN], the GI50 with DMS-114 was > 100 µM (inactive); in the test with LXFL 529 it was > 100 µM (inactive); in the test with DLD-1, > 100 µM (inactive); in the test with RXF 631, > 100 µM (inactive); with M19-MEL, 87.9 µM (inactive); with HOP-18 it was > 100 µM (inactive). Also, in the test on DMS-273, the GI50 was > 100 µM (inactive).
